The values below come from US9981909B2 (Janssen Pharmaceutica NV, priority 2008, dated 2018).

For one assay, the target named is rat 5-HT7 receptor (Rattus norvegicus (Rat), UniProt P32305). Briefly: r5-HT7 binding assay, competitive radioligand binding with [3H]5-CT. As to conditions: rat 5-HT7, HEK-293 membranes. In a few lines: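 Membranes from HEK-293 cells recombinantly expressing rat 5-HT7 were used for competitive radioligand binding with [3H]5-CT, with radioactivity read-out and Ki values derived. In the functional cAMP immunoassay, stably transfected HEK-293 cells were pre-incubated with compound for 10 minutes, challenged with 100 nM 5-CT for 20 minutes, then lysed.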

The next assay has as its target h5HT2A (Homo sapiens (Human), UniProt P28223). Briefly: h5HT2A binding.
A further assay addresses h5HT2B (Homo sapiens (Human), UniProt P41595). Briefly: h5HT2B binding.
In another assay the target is h5HT2C (Homo sapiens (Human), UniProt P28335). Briefly: h5HT2C binding.
The next assay has as its target human SERT (Homo sapiens (Human), UniProt P31645). Briefly: human SERT binding assay with [3H]-citalopram on HEK-293 membranes. As to conditions: read-out: hSERT binding Ki.

By Ki is commonly meant a measure of affinity in units of concentration, obtained from inhibition or displacement.

h5HT2A, sequence (P28223 whole entry): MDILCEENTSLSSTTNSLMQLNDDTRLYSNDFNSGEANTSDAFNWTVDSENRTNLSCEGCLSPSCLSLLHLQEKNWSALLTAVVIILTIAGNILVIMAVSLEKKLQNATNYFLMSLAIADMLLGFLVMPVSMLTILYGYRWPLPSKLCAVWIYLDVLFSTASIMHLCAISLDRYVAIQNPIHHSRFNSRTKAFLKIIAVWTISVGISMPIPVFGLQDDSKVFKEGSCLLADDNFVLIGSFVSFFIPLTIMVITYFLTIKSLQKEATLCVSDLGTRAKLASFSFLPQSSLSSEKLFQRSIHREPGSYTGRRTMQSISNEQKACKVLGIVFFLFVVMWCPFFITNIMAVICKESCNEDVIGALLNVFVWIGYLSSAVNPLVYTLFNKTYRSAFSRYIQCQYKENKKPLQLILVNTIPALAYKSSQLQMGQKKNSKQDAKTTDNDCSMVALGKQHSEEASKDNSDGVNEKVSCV
h5HT2B, sequence (P41595 whole entry): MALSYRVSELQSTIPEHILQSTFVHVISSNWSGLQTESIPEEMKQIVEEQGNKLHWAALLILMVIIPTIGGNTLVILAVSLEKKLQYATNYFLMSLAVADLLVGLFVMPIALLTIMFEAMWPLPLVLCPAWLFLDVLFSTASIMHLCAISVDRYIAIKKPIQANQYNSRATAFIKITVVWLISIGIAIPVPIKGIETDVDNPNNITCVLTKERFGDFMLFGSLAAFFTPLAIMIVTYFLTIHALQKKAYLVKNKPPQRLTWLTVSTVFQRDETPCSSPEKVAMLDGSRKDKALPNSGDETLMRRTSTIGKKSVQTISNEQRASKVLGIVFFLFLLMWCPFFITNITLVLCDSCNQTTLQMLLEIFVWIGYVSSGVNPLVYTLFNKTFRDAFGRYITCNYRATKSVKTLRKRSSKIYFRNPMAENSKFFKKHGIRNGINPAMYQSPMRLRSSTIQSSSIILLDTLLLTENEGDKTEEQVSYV
rat 5-HT7 receptor, sequence (P32305 1-435): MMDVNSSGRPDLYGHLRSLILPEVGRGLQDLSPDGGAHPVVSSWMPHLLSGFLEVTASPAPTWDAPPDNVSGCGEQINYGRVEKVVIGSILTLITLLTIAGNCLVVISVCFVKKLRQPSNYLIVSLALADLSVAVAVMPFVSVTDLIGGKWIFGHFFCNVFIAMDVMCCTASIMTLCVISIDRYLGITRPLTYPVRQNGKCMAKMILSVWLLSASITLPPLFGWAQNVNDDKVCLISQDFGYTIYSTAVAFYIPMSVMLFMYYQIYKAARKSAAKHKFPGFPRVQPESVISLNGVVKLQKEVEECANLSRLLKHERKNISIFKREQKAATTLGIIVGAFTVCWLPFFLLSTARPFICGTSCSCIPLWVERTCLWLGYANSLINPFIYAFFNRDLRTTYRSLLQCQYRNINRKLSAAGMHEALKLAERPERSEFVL
h5HT2C, sequence (P28335 33-458): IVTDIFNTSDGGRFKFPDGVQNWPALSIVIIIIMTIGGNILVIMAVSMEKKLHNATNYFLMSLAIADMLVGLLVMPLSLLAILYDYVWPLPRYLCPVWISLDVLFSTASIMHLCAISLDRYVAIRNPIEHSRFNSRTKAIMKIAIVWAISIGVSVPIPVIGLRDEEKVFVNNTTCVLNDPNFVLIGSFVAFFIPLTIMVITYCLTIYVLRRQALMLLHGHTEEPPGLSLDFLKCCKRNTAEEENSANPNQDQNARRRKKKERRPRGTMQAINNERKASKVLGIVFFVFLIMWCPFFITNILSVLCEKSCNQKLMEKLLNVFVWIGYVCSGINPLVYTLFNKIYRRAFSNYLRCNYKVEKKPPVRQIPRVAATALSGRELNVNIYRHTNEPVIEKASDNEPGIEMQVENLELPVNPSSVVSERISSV
human SERT, sequence (P31645 whole entry): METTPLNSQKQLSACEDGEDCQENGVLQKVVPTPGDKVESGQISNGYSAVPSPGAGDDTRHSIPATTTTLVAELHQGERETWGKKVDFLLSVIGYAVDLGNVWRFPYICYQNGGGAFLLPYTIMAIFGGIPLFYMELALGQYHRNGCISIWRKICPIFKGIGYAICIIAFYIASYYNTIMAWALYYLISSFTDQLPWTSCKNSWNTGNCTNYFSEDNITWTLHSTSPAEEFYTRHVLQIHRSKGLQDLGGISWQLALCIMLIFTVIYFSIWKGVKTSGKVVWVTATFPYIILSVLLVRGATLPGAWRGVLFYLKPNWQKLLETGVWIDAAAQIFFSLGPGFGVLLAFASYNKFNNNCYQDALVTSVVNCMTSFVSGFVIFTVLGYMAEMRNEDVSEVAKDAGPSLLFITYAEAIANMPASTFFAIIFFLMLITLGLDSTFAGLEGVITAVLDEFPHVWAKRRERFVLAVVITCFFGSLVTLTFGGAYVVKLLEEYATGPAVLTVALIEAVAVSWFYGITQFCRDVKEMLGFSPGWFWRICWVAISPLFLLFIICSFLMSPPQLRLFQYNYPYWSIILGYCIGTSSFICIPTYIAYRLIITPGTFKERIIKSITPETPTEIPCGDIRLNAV

On to `Fc1ccc(Oc2cc(Cl)ccc2O[C@@H]2CCNC2)cc1` [Example 270, (R)-3-[4-Chloro-2-(4-fluoro-phenoxy)-phenoxy]-pyrrolidine], for which the Ki is 1 µM on rat 5-HT7 receptor, 0.12 µM at h5HT2A, 0.075 µM at h5HT2B and 0.24 µM at h5HT2C.
Regarding `CC1(Oc2cc(Br)ccc2OCCc2ccccc2)CNC1` [Example 215, 3-(5-Bromo-2-phenethyloxy-phenoxy)-3-methyl-azetidine], the Ki at rat 5-HT7 receptor came to 0.011 µM; on human SERT it was 0.044 µM; on h5HT2A it was 0.006 µM; on h5HT2B, 0.017 µM; on h5HT2C, 0.026 µM.
As for `Cc1ccc(Oc2cc(Cl)ccc2O[C@@H]2CCNC2)cc1` [Example 267, (R)-3-(4-Chloro-2-p-tolyloxy-phenoxy)-pyrrolidine], the Ki was determined as 2.3 µM on rat 5-HT7 receptor, 0.12 µM at h5HT2A, 0.065 µM at h5HT2B and 0.21 µM on h5HT2C.
For `Clc1ccc(O[C@H]2CCNC2)c(Oc2ccc(Br)cc2)c1` [Example 277, (S)-3-[2-(4-Bromo-phenoxy)-4-chloro-phenoxy]-pyrrolidine] the same measures were 5.5 µM, 0.41 µM, 0.27 µM and 0.12 µM.
